Where two headings read alike, the source gives them in different places.
Tests used:
[1] = target: T1, equine serum butyrylcholinesterase (eqBuChE) (Equus caballus, UniProt P81908); assay: biochemical
T1 construct: equine serum (Equus caballus) BuChE (eqBuChE); purchased Sigma-Aldrich C3389; host or cells: equine serum
Experimental: (§1) Enzymes from Electrophorus electricus (eeAChE) (Sigma-Aldrich, Cat. No. C3389) and equine serum (Equus caballus) BuChE (eqBuChE) […]. Stock solutions of the test compounds were prepared in potassium phosphate buffer (0.1 M, pH 8.0). The reaction mixture consisted of Ellman’s reagent (5,5′-dithiobis (2-nitrobenzoic acid), DTNB), enzyme (0.03 U/mL of eeAChE or eqBuChE), and the test compound. Pre-incubation was performed at 30°C for 10 minutes, followed by the addition of 1 mM acetylthiocholine iodide (ATCI) or butyrylthiocholine iodide (BTCI) as substrates. The reaction mixture was further incubated for 15 minutes. […] All assays were conducted in triplicate. IC50 values were calculated by nonlinear regression of compound concentration versus percentage inhibition.
(§2) All experiments were performed in triplicate, and the results are expressed as SEM. IC50 values were determined using nonlinear regression analysis (GraphPad Prism). All statistical analyses were performed using GraphPad Prism version 9.5.1 (GraphPad Software, San Diego, CA, USA).

[2] = target: T2, Electrophorus electricus acetylcholinesterase (eeAChE) (Electrophorus electricus, UniProt O42275); assay: biochemical; details: for Selectivity Index (SI): SI = IC50 of BChE/IC50 of AChE
T2 construct: purchased Sigma-Aldrich C3389
Experimental: as §1, §2

[3] = Ellman's method, mean ± SEM, n = 3, read-out: IC50 (μM) ± SEM eqBuChE
[4] = Ellman's method, mean ± SEM, n = 3, read-out: IC50 (μM) ± SEM (eeAChE)

T1 sequence (P81908 whole entry): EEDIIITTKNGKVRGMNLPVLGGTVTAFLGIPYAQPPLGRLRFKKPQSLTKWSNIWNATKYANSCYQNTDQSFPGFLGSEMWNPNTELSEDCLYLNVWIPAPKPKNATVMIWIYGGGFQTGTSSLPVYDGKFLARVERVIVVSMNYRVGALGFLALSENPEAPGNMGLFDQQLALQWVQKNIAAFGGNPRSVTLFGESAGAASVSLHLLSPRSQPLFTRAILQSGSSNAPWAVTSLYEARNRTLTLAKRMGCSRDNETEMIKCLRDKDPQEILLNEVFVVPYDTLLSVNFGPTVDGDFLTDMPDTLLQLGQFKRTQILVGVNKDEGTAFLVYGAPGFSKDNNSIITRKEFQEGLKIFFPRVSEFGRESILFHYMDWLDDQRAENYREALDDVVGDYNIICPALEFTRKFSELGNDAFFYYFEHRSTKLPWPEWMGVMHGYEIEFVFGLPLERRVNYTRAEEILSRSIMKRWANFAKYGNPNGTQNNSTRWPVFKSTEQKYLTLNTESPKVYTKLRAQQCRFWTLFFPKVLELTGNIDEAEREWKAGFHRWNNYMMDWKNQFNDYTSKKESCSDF
T2 sequence (O42275 24-633): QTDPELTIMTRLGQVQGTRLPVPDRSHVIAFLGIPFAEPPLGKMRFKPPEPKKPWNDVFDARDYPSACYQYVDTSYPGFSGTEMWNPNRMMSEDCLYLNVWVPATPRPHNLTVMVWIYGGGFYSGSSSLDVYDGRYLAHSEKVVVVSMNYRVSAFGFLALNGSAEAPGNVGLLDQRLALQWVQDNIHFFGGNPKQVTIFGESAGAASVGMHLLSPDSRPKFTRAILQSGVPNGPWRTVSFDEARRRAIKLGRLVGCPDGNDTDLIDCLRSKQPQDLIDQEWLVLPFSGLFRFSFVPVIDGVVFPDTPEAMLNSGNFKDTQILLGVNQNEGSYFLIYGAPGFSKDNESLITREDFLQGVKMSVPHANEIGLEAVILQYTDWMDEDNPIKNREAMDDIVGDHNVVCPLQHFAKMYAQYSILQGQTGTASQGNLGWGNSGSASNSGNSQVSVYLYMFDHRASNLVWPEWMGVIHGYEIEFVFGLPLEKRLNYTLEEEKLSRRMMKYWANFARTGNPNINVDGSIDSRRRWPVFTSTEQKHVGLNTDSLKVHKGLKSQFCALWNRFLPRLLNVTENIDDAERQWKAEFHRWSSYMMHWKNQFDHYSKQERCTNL

| Compound | IC50 [1, 3] [µM] | IC50 [2, 4] [µM] | Selectivity Index (SI) [2] | IC50 [1] [µM] | IC50 [2] [µM] |
| --- | --- | --- | --- | --- | --- |
| CC1(C)C=CC2=C(O1)C(=O)c1ccccc1C2=O [Dehydro-α-lapachone (4), Dehydro-α-lapachone] | 55.6 ± 1.41 | 2.64 ± 0.08 | 21.1 |  |  |
| COC(=O)C1(O)c2ccccc2C(=O)C1(O)CC=C(C)C (stereo not drawn) [Indanone derivative (5)] |  |  | 0.45 | 24.2 ± 1.04 | 53.2 ± 1.29 |
| CC(C)=CCC1=C(O)C(=O)c2ccccc2C1=O [Lapachol (1), Lapachol] |  |  | 13.6 | 68.3 ± 1.06 | 5.04 ± 0.24 |
| CC(C)=C(C)C1CC2(C)OC3=C(C(=O)c4ccccc4C3=O)C3C2C12C(=O)c1ccccc1C3(O)C2=O (stereo not drawn) [Peshawaraquinone (3), Peshawaraquinone] | 8.39 ± 0.14 | 0.9 ± 0.04 | 9.3 |  |  |
| CC1(C)CCC2=C(O1)C(=O)c1ccccc1C2=O [α-Lapachone (2), α-Lapachone] | 39.1 ± 0.97 | 11 ± 0.97 | 3.6 |  |  |

Source: publication PMC12413083, “Secondary metabolites isolated from Fernandoa adenophylla (Wall. ex G.Don) steenis as multitarget inhibitors of cholinesterases for the treatment of Alzheimer’s Disease, followed by molecular docking studies” (PLOS One, 2025)
